From paper PMC11747586, “Synthesis and Investigation of Peptide–Drug Conjugates Comprising Camptothecin and a Human Protein‐Derived Cell‐Penetrating Peptide” (Chemical Biology & Drug Design, 2025) come the findings set out here.

What is called CC50 is the concentration at which the toxic effect on the cells reaches its halfway point.

For one data set, the system named is HT144 cells. Kind of data set: Compound internalization/association with HT144 cells (TOF-MS of cell extracts). Format: cell-based. Conditions: 4 μM, 1 h. How it is done: FIGURE 4 (A) Membrane permeability and cellular uptake of PDCs, scaffold peptides, and CPT. Compounds were added to PAMPA wells (4 μM) and incubated for 4 h. Supernatant from apical and basolateral sides of the membrane were collected and analyzed using LC–MS. The amount in the combined soluble fractions was compared to the starting amount to determine % recovery, and the apparent permeability (Papp) was calculated as before (Sevin et al. [2013]). Data is expressed as mean ± SD from a single experiment with three technical replicates. (B) Internalization/cell membrane association of PDCs 12–14 and PDIP with HT144 cells. […] The relative amount of internalized peptide or PDC was determined by integrating area under the curve (AUC) for the [M + 6H]^6+ m/z peak (for the intact mass) using time of flight–mass spectrometry (see Figure S2). […] Data is expressed as mean ± SD from a single experiment with three technical replicates for each treatment and control and was analyzed with ANOVA (Tukey multiple comparisons; **p < 0.01, *p < 0.05). […] Data is expressed as mean ± SD from a single experiment with three technical replicates for each treatment and was analyzed with ANOVA (Fisher multiple paired comparisons; **p < 0.01, *p < 0.05). […]
The area under the curve (AUC) for the [M+6H]6+ m/z peak for each compound was determined using Sciex […]

Data set [1] can be described thus: Cytotoxicity (resazurin) against cultured HaCaT noncancerous cells. The procedure: (§1) Cell death was measured using resazurin, with 0.1% (v/v) Triton X‐100 as a control for 100% cell death. Data points are expressed as mean ± SD for at least two biological replicates. Dose response curves were fitted using [inhibitor] versus response with variable slope, Graphpad Prism v10. […] RBC lysis was determined by measuring released hemoglobin, with 0.1% (v/v) Triton X‐100 as a control for 100% cell lysis. Melittin was included as a membranolytic control. Data points are expressed as mean ± SD for two technical replicates. Dose response curves were fitted using [inhibitor] versus response with variable slope, Graphpad Prism v10. […] CC50 values are expressed as mean (SEM). […]
(§2) HaCaT cells were grown in DMEM medium and HT144 cells were grown in RPMI medium supplemented with 2 mM L-glutamine and 10 mM sodium pyruvate. Media were supplemented with 10% (v/v) fetal bovine serum, 100 units/mL of penicillin and […] of streptomycin. Flasks of cultured cells were maintained in a humidified incubator (37 °C, 5% CO2) and passaged every 2–3 days to maintain cultures between 20–90% confluence. Cell line identity was verified by comparing […]
(§3) STR profiles of the cell lines against database entries from the DSMZ-German collection of microorganisms and cell cultures, GmBH https://celldive.dsmz.de/str/browse.
(§4) Toxicity to the HT144 and HaCaT cell lines was tested following peptide treatment by measuring the metabolism of resazurin into fluorescent resorufin. The assays were performed with 5000 cells/well (96-well plate) in serum free media. Cells were incubated with serially diluted peptides, PDCs or drugs for 72 h or 24 h (37 °C, 5% CO2). PBS and 0.1% (v/v) Triton X-100 were included as controls for 0% and 100% toxicity. Resazurin was added at 0.02% (w/v) final concentration 2 h prior to the assay end point. Fluorescence (λex = 560 nm, λem = 585 nm) was measured using a Tecan infinite M1000Pro multiplate reader. Percentage cytotoxicity was calculated relative to 0% and 100% controls.
(§5) Dose-response curves were fitted and CC50 values were determined using [inhibitor] vs response with four parameters with the top constrained to 100% (GraphPad Prism version 10.0.2). Data was collected as three biological replicates, with experiments conducted on different days.
(§6) Red blood cell (RBC) lysis
(§7) Human RBCs and serum were obtained from healthy volunteers via the Red Cross Lifeblood, Brisbane, Australia. RBCs were washed three times with PBS and stored in culture medium (RPMI

The test system of data set [2] is HaCaT (noncancerous) cells. The description is as above. The note with it: read-out: CC50 HaCaT; 72 h incubation, resazurin; mean (SEM). The procedure: as §1, §2, §3, §4, §5, §6, §7
(Alamar Blue is a resazurin reagent that responds to reducing activity.)

Positions of bridges follow the written chain, without caps; N, C: chain ends. Residues, ends and D or L forms follow the SMILES beside them.

With `CC[C@H](C)[C@@H]1NC(=O)[C@H](CCCCN)NC(=O)[C@H](CCCCN)NC(=O)[C@H](Cc2ccc(O)cc2)NC(=O)[C@H](CC(C)C)NC(=O)[C@@H]2CCCN2C(=O)CNC(=O)CNC(=O)[C@@H](NC(=O)CN)CSSC[C@@H](C(=O)N[C@@H](CCC(=O)O)C(=O)N[C@@H](CO)C(N)=O)NC(=O)[C@H](CC(C)C)NC(=O)[C@H](CCCCN)NC(=O)[C@H](CCCCN)NC(=O)[C@H]([C@@H](C)CC)NC(=O)[C@H]([C@@H](C)CC)NC(=O)[C@H](CCCCN)NC(=O)[C@H](CCCCN)NC(=O)[C@H](Cc2ccc(O)cc2)NC(=O)[C@H](CC(C)C)NC(=O)[C@@H]2CCCN2C(=O)[C@H](C)NC(=O)CNC(=O)CNC(=O)[C@H](CO)NC(=O)CNC(=O)CNC(=O)[C@H](CO)NC(=O)[C@H](CCC(=O)O)NC(=O)[C@H](CC(C)C)NC(=O)[C@H](CC(C)C)NC(=O)[C@H](CCCCN)NC(=O)[C@H](CCCCN)NC(=O)[C@H]([C@@H](C)CC)NC1=O` [PDIP, reference compound] (H-GCGGPLYKKIIKKLLESGGSGGAPLYKKIIKKLCES-NH2; disulfide 2-34; N-terminus assumed), the “recovered intact conjugate/peptide (percentage of internalized compound)” value in the data set with HT144 cells is 9%. Also, the values for the CC50 in data set [1] and in data set [2] were above 32 µM and at least 32 µM, respectively.
